Patent publication US20180186742A1, “PICOLINAMIDES AS FUNGICIDES” (Dow AgroSciences LLC, priority 2017, published 2018)
Where two headings read alike, the source gives them in different places.

Key:
Format in all cases: in vivo
[1] = system: Puccinia triticina; assay: Wheat brown rust (PUCCRT), disease control on wheat seedlings; details: for pest or weed control at 121.5 g/ha: low volume application at 121.5 g/H; for pest or weed control at 100 ppm: high volume application at 100 ppm
In short: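 Compounds in acetone, diluted with nine volumes of water containing 110 ppm Triton X-100, sprayed to run-off on first-leaf Yuma wheat seedlings; track-spray tests used EC formulations with 0.1% Trycol 5941. Puccinia triticina spores applied before or after treatment. Overnight dark dew room at 22° C, 100% humidity, then greenhouse at 24° C.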

[2] = system: Zymoseptoria tritici; assay: Leaf blotch of wheat (SEPTTR), disease control on wheat seedlings; details: for pest or weed control at 121.5 g/ha: low volume application at 121.5 g/H; for pest or weed control at 100 ppm: high volume application at 100 ppm
In short: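 Z. tritici spores were inoculated onto wheat seedlings (Yuma, first leaf emerged) either before or after treatment. Treatment was an automated spray to run-off of acetone/Triton X-100 water solutions, or a track spray of EC formulations with 0.1% Trycol 5941. Plants were held in dew chambers at 20 °C and then a greenhouse at 20 °C. First-leaf severity (0–100%) was converted to percent control against untreated plants.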

[3] = system: Phakopsora pachyrhizi; assay: Asian soybean rust (PHAKPA), disease control on soybean seedlings; details: High volume application at 25 ppm
In short: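 Two-week-old Williams 82 soybean seedlings were sprayed to run-off with compound in acetone/water (1:9) containing 0.011% Tween 20. Inoculation was 3 days before (curative) or 1 day after (protectant) treatment, followed by 24 h dark dew at 22 °C, 100% RH, then 23 °C; disease severity scored on sprayed leaves.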

[4] = 24 h, 1 Day Protectant, read-out: PUCCRT disease control, 1DP, LV activity
[5] = 72 h, 3 Day Curative, read-out: PUCCRT disease control, 3DC, LV activity
[6] = 24 h, 1 Day Protectant, read-out: SEPTTR disease control, 1DP, LV activity
[7] = 72 h, 3 Day Curative, read-out: SEPTTR disease control, 3DC, LV activity
[8] = 24 h, 1 Day Protectant, read-out: PHAKPA 1DP disease control rating
[9] = 72 h, 3 Day Curative, read-out: PHAKPA 3DC disease control rating
[10] = 24 h, 1 Day Protectant, wheat brown rust, read-out: PUCCRT 1DP disease control, LV activity
[11] = 72 h, 3 Day Curative, wheat brown rust, read-out: PUCCRT 3DC disease control, LV activity
[12] = 24 h, 1 Day Protectant, wheat leaf blotch, read-out: SEPTTR 1DP disease control, LV activity
[13] = 72 h, 3 Day Curative, wheat leaf blotch, read-out: SEPTTR 3DC disease control, LV activity

| SMILES | pest or weed control at 121.5 g/ha [1, 4] [%] | pest or weed control at 121.5 g/ha [1, 5] [%] | pest or weed control at 121.5 g/ha [2, 6] [%] | pest or weed control at 121.5 g/ha [2, 7] [%] | pest or weed control at 25 ppm [3, 8] [%] | pest or weed control at 25 ppm [3, 9] [%] | pest or weed control at 121.5 g/ha [1, 10] [%] | pest or weed control at 121.5 g/ha [1, 11] [%] | pest or weed control at 121.5 g/ha [2, 12] [%] | pest or weed control at 121.5 g/ha [2, 13] [%] | pest or weed control at 100 ppm ([1]; 24 h, 1 Day Protectant, read-out: PUCCRT disease control, 1DP, HV activity) [%] | pest or weed control at 100 ppm ([1]; 72 h, 3 Day Curative, read-out: PUCCRT disease control, 3DC, HV activity) [%] | pest or weed control at 100 ppm ([2]; 24 h, 1 Day Protectant, read-out: SEPTTR disease control, 1DP, HV activity) [%] | pest or weed control at 100 ppm ([2]; 72 h, 3 Day Curative, read-out: SEPTTR disease control, 3DC, HV activity) [%] |
| --- | --- | --- | --- | --- | --- | --- | --- | --- | --- | --- | --- | --- | --- | --- |
| COc1cc(F)ccc1[C@H](C1CCC1)[C@H](C)OC(=O)[C@H](C)NC(=O)c1nccc(OC)c1OC(C)=O [Compound 231] | < 80 | < 80 | < 80 | < 80 | > 80 | < 80 | – | – | – | – | – | – | – | – |
| COc1ccnc(C(=O)N[C@@H](C)C(=O)O[C@@H](C)[C@@H](c2ccc(F)cc2C)C2CCC2)c1OC(C)=O [Compound 183] | < 80 | < 80 | < 80 | > 80 | < 80 | < 80 | – | – | – | – | – | – | – | – |
| COc1ccnc(C(=O)N[C@@H](C)C(=O)O[C@@H](C)[C@@H](c2ccccc2)C(C)C)c1OCOC(C)=O [Compound 162] | > 80 | > 80 | < 80 | > 80 | > 80 | < 80 | – | – | – | – | – | – | – | – |
| CCC(CC)[C@@H](c1ccc(F)cc1OC)[C@H](C)OC(=O)[C@H](C)NC(=O)c1nccc(OC)c1OC(C)=O [Compound 229] | > 80 | < 80 | > 80 | > 80 | > 80 | < 80 | – | – | – | – | – | – | – | – |
| CCC(C)[C@H](c1ccc(F)cc1OC)[C@H](C)OC(=O)[C@H](C)NC(=O)c1nccc(OC)c1OC(C)=O (stereo partly shown) [Compound 225] | > 80 | < 80 | > 80 | > 80 | > 80 | < 80 | – | – | – | – | – | – | – | – |
| COc1ccnc(C(=O)N[C@@H](C)C(=O)O[C@@H](C)[C@@H](c2ccc(Cl)cc2Cl)C(C)C)c1OC(C)=O [Compound 370] | – | – | – | – | < 80 | < 80 | < 80 | < 0 | < 80 | < 80 | – | – | – | – |
| COc1ccnc(C(=O)N[C@@H](C)C(=O)O[C@@H](C)[C@@H](c2ccc(F)cc2C)C2CCCCC2)c1OCOC(C)=O [Compound 194] | < 80 | < 0 | < 80 | > 80 | < 80 | < 80 | – | – | – | – | – | – | – | – |
| COc1ccnc(C(=O)N[C@@H](C)C(=O)O[C@@H](C)[C@@H](c2ccc(C)cc2C)C(C)C)c1OCOC(C)=O [Compound 204] | > 80 | < 80 | < 0 | < 80 | < 80 | < 0 | – | – | – | – | – | – | – | – |
| COc1ccnc(C(=O)N[C@@H](C)C(=O)O[C@@H](C)[C@@H](c2ccc(C)cc2C)C2CCCC2)c1OCOC(C)=O [Compound 205] | > 80 | < 0 | < 80 | < 80 | < 80 | < 0 | – | – | – | – | – | – | – | – |
| COc1cc(F)ccc1[C@H](C1CCCC1)[C@H](C)OC(=O)[C@H](C)NC(=O)c1nccc(OC)c1OCOC(C)=O [Compound 235] | > 80 | < 80 | < 80 | < 80 | > 80 | < 80 | – | – | – | – | – | – | – | – |
| COc1ccc([C@H](C(C)C)[C@H](C)OC(=O)[C@H](C)NC(=O)c2nccc(OC)c2OCOC(C)=O)cc1 [Compound 382] | – | – | – | – | > 80 | < 80 | > 80 | > 80 | < 80 | > 80 | – | – | – | – |
| COc1ccnc(C(=O)N[C@@H](C)C(=O)O[C@@H](C)[C@@H](c2ccc(F)cc2C)C(C)C)c1OC(C)=O [Compound 178] | > 80 | < 80 | < 0 | < 80 | < 0 | < 80 | – | – | – | – | – | – | – | – |
| COc1ccnc(C(=O)N[C@@H](C)C(=O)O[C@H](C)[C@H](c2ccc(F)cc2C)C(C)C)c1OC(C)=O [Compound 192] | > 80 | < 80 | < 0 | > 80 | > 80 | < 80 | – | – | – | – | – | – | – | – |
| COc1ccnc(C(=O)N[C@@H](C)C(=O)O[C@H](C)[C@H](c2ccc(F)cc2C)C2CCCCC2)c1OCOC(C)=O [Compound 199] | < 80 | < 0 | > 80 | < 80 | < 80 | < 80 | – | – | – | – | – | – | – | – |
| COc1cc[n+]([O-])c(C(=O)N[C@@H](C)C(=O)O[C@@H](C)[C@@H](c2ccc(C)cc2C)C(C)C)c1O [Compound 211] | < 0 | < 0 | < 80 | < 0 | < 80 | < 0 | – | – | – | – | < 80 | < 0 | < 80 | < 80 |
| CCC(C)[C@H](c1ccc(C)cc1C)[C@H](C)OC(=O)[C@H](C)NC(=O)c1c(O)c(OC)cc[n+]1[O-] (stereo partly shown) [Compound 213] | < 80 | < 0 | < 80 | < 80 | < 0 | < 0 | – | – | – | – | – | – | – | – |
| COc1ccnc(C(=O)N[C@@H](C)C(=O)O[C@@H](C)[C@@H](c2ccc(F)cc2C)C2CCCC2)c1OC(C)=O [Compound 180] | > 80 | < 80 | < 80 | < 80 | < 80 | < 80 | – | – | – | – | – | – | – | – |
| COc1ccnc(C(=O)N[C@@H](C)C(=O)O[C@@H](C)[C@H](c2ccc(OC(C)C)cc2)C(C)C)c1OC(C)=O [Compound 377] | – | – | – | – | < 80 | < 80 | > 80 | < 80 | < 80 | < 80 | – | – | – | – |
| CCC(C)[C@@H](c1ccc(F)cc1C)[C@H](C)OC(=O)[C@H](C)NC(=O)c1nccc(OC)c1OCOC(C)=O (stereo partly shown) [Compound 196] | > 80 | > 80 | > 80 | > 80 | > 80 | < 80 | – | – | – | – | – | – | – | – |
| COc1ccnc2c(=O)n([C@@H](C)C(=O)O[C@@H](C)[C@@H](c3ccc(C)cc3C)C3CCCC3)c(=O)oc12 [Compound 209] | < 0 | < 0 | < 80 | < 80 | < 80 | < 0 | – | – | – | – | – | – | – | – |
| COc1ccnc(C(=O)N[C@@H](C)C(=O)O[C@@H](C)[C@@H](c2ccc(F)cc2C)C2CCCC2)c1OCOC(C)=O [Compound 193] | < 80 | < 80 | < 0 | < 80 | < 80 | < 80 | – | – | – | – | – | – | – | – |
| COc1cc(F)ccc1[C@@H](C(C)C)[C@H](C)OC(=O)[C@H](C)NC(=O)c1nccc(OC)c1OC(C)=O [Compound 221] | < 80 | < 80 | < 80 | > 80 | < 80 | < 80 | – | – | – | – | – | – | – | – |
